Test results taken from US20030129753A1, “Chemical screening method” (priority 2002, published 2003).
≈ marks a conversion by molar mass, not a printed value.

Assay: solubility in ethanol by conventional methods
Type: physicochemical
Details: organic solvent or mixture, separate experiments by conventional methods
Protocol: The invention was tested on the sulfisoxazole/polyvinylpyrrolidone system in ethanol where sulfisoxazole was the active ingredient and polyvinylpyrrolidone was the carrier of choice. The total time required to evaporate ethanol for each sample was less than 30 seconds. […] This information is important because these solubility parameters determine the minimum amount (volume) of solvent required to co-dissolve the active ingredient and the carrier molecules. Next eight ethanol solutions were prepared of different sulfisoxazole to polyvinylpyrrolidone weight (molar) ratios.

Cc1noc(NS(=O)(=O)c2ccc(N)cc2)c1C [sulfisoxazole]
solubility: 16 mg/mL (≈ 59.9 mM)
